The record followed here is patent publication US20240124387A1, “ACID RECOVERY” (GREENCOVERY B.V., priority 2021, published 2024).

Series [1] is described as follows: Precipitation with CO2 in solutions containing different amino acids, ethanol and water (table 3). The format is physicochemical. The settings on record: for Concentration of amino acid in the liquid, Before precipitation / Concentration of amino acid in the liquid, After precipitation / Precipitate: 0.5M NaOH; for Concentration of amino acid in the liquid, After precipitation / Precipitate: after CO2; for Precipitate: includes sodium (bi)carbonate; for share of the amino acid precipitated when providing CO2: 80 wt. % ethanol. From the text:
A variety of eluates, comprising different amino acids, and solvent concentrations were subjected to the precipitation stage as summarized in table 3: […]

Series [2] is described as follows: Precipitation stage: eluate (desorption) samples sparged with CO2, acid quantified again. The format is physicochemical. The settings on record: for reduction of amino acid concentration in solution (in the eluate) after CO2 sparging: eluate samples with highest amino acid content, 0.425 M KOH in 93.5 wt. % ethanol; for reduction of organic acid concentration in solution after sparging with CO2: desorption samples of Example 1 (90 wt. % ethanol, 1M KOH). How it is done: In the precipitation stage, the desorption samples were sparged with CO2, and the organic acids were quantified again the precipitation stage.
The eluate was separated into four samples of 7.5 mL each.

The mark [3] stands for this setting: 20 wt. % water, 80% wt. % ethanol.
The mark [4] stands for this setting: 37.6 wt. % water, 62.4 wt. % ethanol.
The mark [5] stands for this setting: 50 wt. % water, 50 wt. % ethanol.
The mark [6] stands for this setting: second 7.5 mL eluate sample, 90 wt. % methanol, 0.85M KOH.

Marks after values point to notes of the source that are not given here.

For the molecule `N[C@@H](CCC(=O)O)C(=O)O` [Glutamic acid], the “Concentration of amino acid in the liquid, Before precipitation” value (“Concentration … Before precipitation” below) is on record as 10.1* g/L in series [1] (setting [3]) and 10.1 g/L in series [1] (setting [4]). Further, the “Concentration of amino acid in the liquid, After precipitation” value (from here on “Concentration … After precipitation”) is 700 µg/mL in series [1] (setting [3]) and 4800 µg/mL in series [1] (setting [4]). Moreover, the Precipitate in series [1] (setting [3]) is on record as 33.7 g/L; in series [1] (setting [4]), 30.5 g/L. Besides, the “reduction of glutamic acid concentration in solution after CO2 sparging” value in series [2] (0.85 M KOH in 90 wt. % ethanol (AA4)) was “approximately 74%”; in series [2] (1M NaOH in 62.4 wt. % ethanol (AA5)), “approximately 90%”. Further, the “reduction of amino acid concentration in solution (in the eluate) after CO2 sparging” value (from here on “reduction of amino acid concentration”) in series [2] is given as “approximately 68%”.

With `CC(C)C[C@H](N)C(=O)O` [Leucine, L-leucine], the results for the “Concentration … Before precipitation” value in series [1] (setting [3]), in series [1] (setting [4]) and in series [1] (setting [5]) were 10.3 g/L, 9.6 g/L and 10.2 g/L, respectively. For the same molecule, the “Concentration … After precipitation” value in series [1] (setting [3]) was 9100 µg/mL; in series [1] (setting [4]) it was 9700 µg/mL; in series [1] (setting [5]) it was 10200 µg/mL. Also, the figures for the Precipitate in series [1] (setting [3]), in series [1] (setting [4]) and in series [1] (setting [5]) were 20.7 g/L, 18.1 g/L and 12.6 g/L, respectively. Besides, the “behaviour of the amino acid when providing CO2” value in series [1] (50 wt. % ethanol) and in series [1] (62.4% ethanol) was “remained in solution” throughout. Also, the “share of the amino acid precipitated when providing CO2” value in series [1] is “less than 10%”. In addition, the “reduction of amino acid concentration” value in series [2] was greater than 99%.

Take `NCCCC[C@H](N)C(=O)O` [Lysine]: in series [1] (setting [3]), the “Concentration … Before precipitation” value was found to be 10.3 g/L; the “Concentration … After precipitation” value turned out to be 3400 µg/mL; the Precipitate is recorded as 32.5 g/L. Also, in series [1] (setting [4]), the “Concentration … Before precipitation” value came out at 10.4 g/L; the “Concentration … After precipitation” value is 10300 µg/mL; the Precipitate amounted to 22.0 g/L. In series [1] (setting [5]), the “Concentration … Before precipitation” value turned out to be 10.3 g/L; the “Concentration … After precipitation” value came out at 10600 µg/mL; the Precipitate stood at 25.9 g/L.

`CSCC[C@H](N)C(=O)O` [Methionine]: in series [1] (setting [3]), the “Concentration … Before precipitation” value turned out to be 10.2 g/L; the “Concentration … After precipitation” value was found to be 4100 µg/mL; the Precipitate was 27.4 g/L. For the same molecule, in series [1] (setting [4]), the “Concentration … Before precipitation” value was 10.2 g/L; the “Concentration … After precipitation” value came out at 9600 µg/mL; the Precipitate was 21.2 g/L. In series [1] (setting [5]), the “Concentration … Before precipitation” value came to 10.3 g/L; the “Concentration … After precipitation” value worked out at 9600 µg/mL; the Precipitate is on record as 15.2 g/L.

Regarding `N[C@@H](Cc1ccccc1)C(=O)O` [Phenylalanine], the results for the “Concentration … Before precipitation” value in series [1] (setting [3]), in series [1] (setting [4]) and in series [1] (setting [5]) were 10.3 g/L, 10.2 g/L and 10.3 g/L, respectively. For the same molecule, the “Concentration … After precipitation” value was 3600 µg/mL in series [1] (setting [3]), 9100 µg/mL in series [1] (setting [4]) and 10300 µg/mL in series [1] (setting [5]). Also, the Precipitate in series [1] (setting [3]) is 27.4 g/L; in series [1] (setting [4]) it was 20.6 g/L; in series [1] (setting [5]) it was 16.9 g/L.

Take `N[C@@H](CCC(=O)[O-])C(=O)[O-].[Na+].[Na+]` [Sodium glutamate]: the “Concentration … Before precipitation” value in series [1] (setting [3]) was 10.1* g/L; in series [1] (setting [4]), 10.1 g/L; in series [1] (setting [5]), 10.1 g/L. The “Concentration … After precipitation” value in series [1] (setting [3]) is 800 µg/mL; in series [1] (setting [4]), 4300 µg/mL; in series [1] (setting [5]), 10800 µg/mL. In addition, the values for the Precipitate in series [1] (setting [3]), in series [1] (setting [4]) and in series [1] (setting [5]) were 35.5 g/L, 34.1 g/L and 17.5 g/L, respectively. In addition, the figures for the “behaviour of the amino acid when providing CO2” value in series [1] (50 wt. % ethanol) and in series [1] (62.4% ethanol) were “remained in solution” and “partially precipitated”, respectively. In addition, in series [1], the “share of the amino acid precipitated when providing CO2” value is listed as “over 90%”.

`CC(=O)O` [acetate]: in series [2] (setting [6]), the “concentration in eluate sample after CO2 sparging” value came out at 24300 µg/mL and the “concentration in eluate sample before CO2 sparging” value worked out at 24600 µg/mL.

As for `C[C@H](N)C(=O)O` [alanine, L-alanine], in series [2], the “reduction of amino acid concentration” value is reported as roughly 31%.

Turning to `CCCCCC(=O)O` [caproate, caproic acid], in series [2], the “reduction of organic acid concentration in solution after sparging with CO2” value is reported as “(essentially) no reduction”.

`CC(O)C(=O)O` (stereo not drawn) [lactate, lactic acid]: in series [2], the “reduction of organic acid concentration in solution after sparging with CO2” value is recorded as “(essentially) no reduction”.
